From patent publication US11897867B2, “6-phenyl-4,5-dihydropyridazin-3(2H)-one derivatives as PDE3A and PDE3B inhibitors for treating cancer” (Bayer Aktiengesellschaft, priority 2017, dated 2024)

Key:
SK-MEL-3 (melanoma) = assay: Cell proliferation measurement (Cell Titer Glo), SK-MEL-3; type: cell-based; conditions: Homo sapiens, SK-MEL3, SK-MEL-3 cells, 72 h treatment, read-out: Anti-proliferation IC50 SK-MEL-3 (melanoma)
Procedure, shortened: (§1)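 Cells (1000/well; 500 for HeLa) plated overnight at 37 °C, then exposed to a ≥10-point compound dilution series for 72 h at 37 °C, DMSO 0.3% final as vehicle. Viability read by CellTiter-Glo luminescence; IC50 from 4-parameter fit against untreated wells.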

human full length PDE3B = target: T1, human full length PDE3B (Homo sapiens, UniProt Q13370); assay: PDE3B enzyme inhibition (3H-cAMP Scintillation Proximity Assay); type: biochemical; conditions: PDE3B cell extract from Sf9 cells, 60 min room temperature; read-out: Target IC50 PDE3B IC50
T1 construct: Sf9 cells overexpressing human full length PDE3B; purchased SB Drug Discovery, UK; host or cells: Sf9 cells (cell extract)
Procedure, shortened: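 SPA with Sf9 cell extract overexpressing human full-length PDE3B, diluted for linear kinetics and <70% substrate turnover, in 50 mM Tris/HCl pH 7.5, 8.3 mM MgCl2, 1.7 mM EDTA, 0.2% BSA. [8-3H]cAMP substrate, 60 min at room temperature, stopped with yttrium SPA beads. IC50 from sigmoidal fit of % activity vs log concentration.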

human full length PDE3A = target: T2, human full length PDE3A (Homo sapiens, UniProt Q14432); assay: PDE3A enzyme inhibition (3H-cAMP Scintillation Proximity Assay); type: biochemical; conditions: PDE3A cell extract from Sf9 cells, 60 min room temperature; read-out: Target IC50 PDE3A IC50
T2 construct: Sf9 cells overexpressing human full length PDE3A; purchased SB Drug Discovery, UK; host or cells: Sf9 cells (cell extract)
Procedure, shortened: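 Sf9 cell extract overexpressing human full-length PDE3A, diluted for linear kinetics (<70% substrate used), in 50 mM Tris/HCl pH 7.5, 8.3 mM MgCl2, 1.7 mM EDTA, 0.2% BSA. [8-3H]cAMP substrate, 60 min at room temperature, yttrium SPA bead read-out; IC50 from sigmoidal curves of % activity.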

[1] = system: HeLa cells (cervical cancer); assay: Cell proliferation measurement (Cell Titer Glo), HeLa; type: cell-based; conditions: Homo sapiens, 72 h treatment, read-out: Anti-proliferation IC50 HeLa (Cervical cancer)
Procedure, shortened: as §1

T1 sequence (Q13370 whole entry): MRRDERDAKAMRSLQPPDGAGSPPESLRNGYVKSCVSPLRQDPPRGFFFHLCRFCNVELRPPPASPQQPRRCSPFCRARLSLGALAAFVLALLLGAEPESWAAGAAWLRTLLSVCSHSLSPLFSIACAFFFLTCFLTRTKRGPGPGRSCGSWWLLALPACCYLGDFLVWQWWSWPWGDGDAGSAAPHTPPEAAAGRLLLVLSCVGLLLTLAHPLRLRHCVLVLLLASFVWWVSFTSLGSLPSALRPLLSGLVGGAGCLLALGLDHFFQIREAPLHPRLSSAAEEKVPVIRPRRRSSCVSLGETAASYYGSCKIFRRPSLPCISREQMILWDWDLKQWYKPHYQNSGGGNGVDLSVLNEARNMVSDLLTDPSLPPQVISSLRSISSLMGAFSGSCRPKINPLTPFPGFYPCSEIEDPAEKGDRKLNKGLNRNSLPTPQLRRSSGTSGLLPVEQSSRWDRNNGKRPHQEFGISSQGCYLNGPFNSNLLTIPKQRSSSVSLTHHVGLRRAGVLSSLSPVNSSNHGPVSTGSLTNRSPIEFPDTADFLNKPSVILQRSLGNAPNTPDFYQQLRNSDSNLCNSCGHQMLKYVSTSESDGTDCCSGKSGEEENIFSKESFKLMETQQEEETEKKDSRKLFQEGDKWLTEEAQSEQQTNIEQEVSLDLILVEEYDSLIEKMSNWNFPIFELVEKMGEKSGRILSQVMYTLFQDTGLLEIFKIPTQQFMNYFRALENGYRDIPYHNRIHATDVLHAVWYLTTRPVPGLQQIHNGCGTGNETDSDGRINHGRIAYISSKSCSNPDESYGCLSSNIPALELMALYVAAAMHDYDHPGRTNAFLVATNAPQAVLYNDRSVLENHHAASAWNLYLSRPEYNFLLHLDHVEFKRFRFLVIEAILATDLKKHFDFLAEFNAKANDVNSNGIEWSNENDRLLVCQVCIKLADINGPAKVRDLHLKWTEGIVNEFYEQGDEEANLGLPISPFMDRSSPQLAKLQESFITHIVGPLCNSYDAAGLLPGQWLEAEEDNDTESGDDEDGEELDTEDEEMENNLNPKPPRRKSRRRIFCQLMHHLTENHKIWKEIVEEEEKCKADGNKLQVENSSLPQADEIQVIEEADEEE
T2 sequence (Q14432 whole entry): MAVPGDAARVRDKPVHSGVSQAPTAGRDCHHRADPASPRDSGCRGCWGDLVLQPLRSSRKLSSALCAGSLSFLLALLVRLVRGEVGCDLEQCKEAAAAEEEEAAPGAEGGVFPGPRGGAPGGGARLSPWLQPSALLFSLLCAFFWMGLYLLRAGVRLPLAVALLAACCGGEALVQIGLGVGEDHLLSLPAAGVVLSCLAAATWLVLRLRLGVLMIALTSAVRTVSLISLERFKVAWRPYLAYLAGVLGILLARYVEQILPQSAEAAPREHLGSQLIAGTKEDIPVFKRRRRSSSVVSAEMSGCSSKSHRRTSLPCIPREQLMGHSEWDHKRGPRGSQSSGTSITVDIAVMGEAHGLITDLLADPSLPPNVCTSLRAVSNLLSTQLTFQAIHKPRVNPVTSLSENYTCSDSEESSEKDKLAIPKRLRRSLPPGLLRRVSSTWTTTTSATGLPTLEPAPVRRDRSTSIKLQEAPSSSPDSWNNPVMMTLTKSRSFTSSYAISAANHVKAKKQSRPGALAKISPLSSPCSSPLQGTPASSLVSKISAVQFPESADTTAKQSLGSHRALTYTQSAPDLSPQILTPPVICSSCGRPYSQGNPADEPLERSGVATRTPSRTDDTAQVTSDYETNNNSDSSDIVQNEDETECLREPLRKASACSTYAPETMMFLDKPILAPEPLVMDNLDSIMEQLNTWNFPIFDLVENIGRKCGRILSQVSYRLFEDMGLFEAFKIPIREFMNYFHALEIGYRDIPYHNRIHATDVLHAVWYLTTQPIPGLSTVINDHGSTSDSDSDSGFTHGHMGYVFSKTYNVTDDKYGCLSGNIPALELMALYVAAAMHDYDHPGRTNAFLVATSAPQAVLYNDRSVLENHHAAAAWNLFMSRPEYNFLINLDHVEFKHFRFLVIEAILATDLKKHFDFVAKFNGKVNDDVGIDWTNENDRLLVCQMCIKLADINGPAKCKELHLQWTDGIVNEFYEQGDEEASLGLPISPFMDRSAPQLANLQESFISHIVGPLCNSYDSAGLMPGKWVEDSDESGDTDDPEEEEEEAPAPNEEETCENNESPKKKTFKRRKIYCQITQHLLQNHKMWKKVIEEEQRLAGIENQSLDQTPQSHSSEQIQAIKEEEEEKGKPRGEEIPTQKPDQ

Compound	IC50 (SK-MEL-3 (melanoma)) [nM]	IC50 (human full length PDE3B) [nM]	IC50 (human full length PDE3A) [nM]	IC50 [1] [nM]
Cc1cnccc1-c1ccc(C2=NNC(=O)CC2)cc1F [Example 73, 6-[3-fluoro-4-(3-methylpyridin-4-yl)phenyl]-4,5-dihydropyridazin-3(2H)-one]	15.4	39	52	9.52
O=C1CCC(c2ccc(-c3cccc(F)c3)c(F)c2)=NN1 [Example 63, 6-(2,3′-difluoro[1,1′-biphenyl]-4-yl)-4,5-dihydropyridazin-3(2H)-one]	6.4	88	250	4.75
CC1C2CC2CN1c1c(F)cc(C2=NNC(=O)CC2)cc1F (stereo not drawn) [Example 17, 6-{3,5-Difluoro-4-[2-methyl-3-azabicyclo[3.1.0]hex-3-yl]phenyl}-4,5-dihydropyridazin-3(2H)-one]	2.99	89	200	1.29
O=C1CCC(c2ccc(-c3ccncc3Cl)c(F)c2)=NN1 [Example 69, 6-[4-(3-chloropyridin-4-yl)-3-fluorophenyl]-4,5-dihydropyridazin-3(2H)-one]	38.6	95	140	18.3
Cc1cc(C2=NNC(=O)CC2)ccc1-c1cc(F)c(F)c(F)c1 [Example 96, 6-(3′,4′,5′-trifluoro-2-methyl[1,1′-biphenyl]-4-yl)-4,5-dihydropyridazin-3(2H)-one]	> 100	260	310	18.5
Cc1ccccc1-c1ccc(C2=NNC(=O)CC2)cc1F [Example 77, 6-(2-fluoro-2′-methyl[1,1′-biphenyl]-4-yl)-4,5-dihydropyridazin-3(2H)-one]	4.53	80	100	2.04
Nc1cc(-c2ccc(C3=NNC(=O)CC3)cc2F)ccc1Cl [Example 9, 6-(3′-Amino-4′-chloro-2-fluorobiphenyl-4-yl)-4,5-dihydropyridazin-3(2H)-one]	2.12	35	90	1.55
Cc1cc(C2=NNC(=O)CC2)ccc1-c1ccc(N)cc1 [Example 115, 6-(4′-amino-2-methyl[1,1′-biphenyl]-4-yl)-4,5-dihydropyridazin-3(2H)-one]	37.3	80	47	7.87
O=C1CCC(c2ccc(N3CC(F)(F)C3)c(C(F)(F)F)c2)=NN1 [Example 19, 6-[4-(3,3-Difluoroazetidin-1-yl)-3-(trifluoromethyl)phenyl]-4,5-dihydropyridazin-3(2H)-one]	10.4	210	210	5.76
O=C1CCC(c2ccc(C3=CCCCC3)c(F)c2)=NN1 [Example 79, 6-(2-fluoro-2′,3′,4′,5′-tetrahydro[1,1′-biphenyl]-4-yl)-4,5-dihydropyridazin-3(2H)-one]	6.15	170	170	4.47
CNc1ccc(C2=NNC(=O)CC2)cc1C(F)(F)F [Example 23, 6-[4-(Methylamino)-3-(trifluoromethyl)phenyl]-4,5-dihydropyridazin-3(2H)-one]	67.6	470	450	58
Cc1cc(C2=NNC(=O)CC2)ccc1-c1cccc(C(N)=O)c1 [Example 114, 2′-methyl-4′-(6-oxo-1,4,5,6-tetrahydropyridazin-3-yl)[1,1′-biphenyl]-3-carboxamide]	> 100	53	36	46.3
O=C1CCC(c2ccc(N3CC(O)C3)c(C(F)(F)F)c2)=NN1 [Example 24, 6-[4-(3-Hydroxyazetidin-1-yl)-3-(trifluoromethyl)phenyl]-4,5-dihydropyridazin-3(2H)-one]	15	300	350	9.97
Cc1cc(C2=NNC(=O)CC2)ccc1-c1cn[nH]c1 [Example 6, 6-[3-Methyl-4-(1H-pyrazol-4-yl)phenyl]-4,5-dihydropyridazin-3(2H)-one]	89.3	87	72	53.3
COc1ccc(-c2ccc(C3=NNC(=O)CC3)cc2F)cc1 [Example 86, 6-(2-fluoro-4′-methoxy[1,1′-biphenyl]-4-yl)-4,5-dihydropyridazin-3(2H)-one]	59.8	310	280	10.6
Cc1cc(C2=NNC(=O)CC2)ccc1-c1cnc(N)nc1 [Example 91, 6-[4-(2-aminopyrimidin-5-yl)-3-methylphenyl]-4,5-dihydropyridazin-3(2H)-one]	> 100	73	57	51.9
N#Cc1ccc(-c2ccc(C3=NNC(=O)CC3)cc2F)cc1 [Example 46, 2′-fluoro-4′-(6-oxo-1,4,5,6-tetrahydropyridazin-3-yl)[1,1′-biphenyl]-4-carbonitrile]	12.7	37	61	9.65
Cc1ccc(-c2ccc(C3=NNC(=O)CC3)cc2F)cc1N [Example 48, 6-(3′-amino-2-fluoro-4′-methyl[1,1′-biphenyl]-4-yl)-4,5-dihydropyridazin-3(2H)-one]	20.9	260	230	13.1
Cc1ccc(C)c(-c2ccc(C3=NNC(=O)CC3)cc2F)c1 [Example 88, 6-(2-fluoro-2′,5′-dimethyl[1,1′-biphenyl]-4-yl)-4,5-dihydropyridazin-3(2H)-one]	> 100	230	230	91.6
COc1ccc(-c2ccc(C3=NNC(=O)CC3)cc2F)cn1 [Example 82, 6-[3-fluoro-4-(6-methoxypyridin-3-yl)phenyl]-4,5-dihydropyridazin-3(2H)-one]	23.6	85	83	14
C/C=C(\C)c1ccc(C2=NNC(=O)CC2)cc1F [Example 36, 6-{4-[(2E)-but-2-en-2-yl]-3-fluorophenyl}-4,5-dihydropyridazin-3(2H)-one]	14.3	390	420	8.33
Cc1ccc(-c2ccc(C3=NNC(=O)CC3)cc2C)cn1 [Example 93, 6-[3-methyl-4-(6-methylpyridin-3-yl)phenyl]-4,5-dihydropyridazin-3(2H)-one]	24.7	49	38	5.39
Cc1ccc(F)c(-c2ccc(C3=NNC(=O)CC3)cc2F)c1 [Example 68, 6-(2,2′-difluoro-5′-methyl[1,1′-biphenyl]-4-yl)-4,5-dihydropyridazin-3(2H)-one]	71.2	100	160	36.3
Cc1cc(C2=NNC(=O)CC2)ccc1-c1cccc(O)c1 [Example 101, 6-(3′-hydroxy-2-methyl[1,1′-biphenyl]-4-yl)-4,5-dihydropyridazin-3(2H)-one]	36.3	67	67	14.6
Cc1cc(C2=NNC(=O)CC2)ccc1-c1ccccc1O [Example 102, 6-(2′-hydroxy-2-methyl[1,1′-biphenyl]-4-yl)-4,5-dihydropyridazin-3(2H)-one]	> 100	555	460	23.4
COc1cccc(-c2ccc(C3=NNC(=O)CC3)cc2F)c1 [Example 64, 6-(2-fluoro-3′-methoxy[1,1′-biphenyl]-4-yl)-4,5-dihydropyridazin-3(2H)-one]	23.1	91	100	12
Cc1cc(C2=NNC(=O)CC2)ccc1-c1c(F)cccc1F [Example 110, 6-(2′,6′-difluoro-2-methyl[1,1′-biphenyl]-4-yl)-4,5-dihydropyridazin-3(2H)-one]	39.2	260	240	8.57
O=C1CCC(c2ccc(-c3ccc(F)c(Cl)c3)c(F)c2)=NN1 [Example 83, 6-(3′-chloro-2,4′-difluoro[1,1′-biphenyl]-4-yl)-4,5-dihydropyridazin-3(2H)-one]	61.8	280	560	39.7
O=C1CCC(c2ccc(-c3cncnc3)c(F)c2)=NN1 [Example 40, 6-[3-fluoro-4-(pyrimidin-5-yl)phenyl]-4,5-dihydropyridazin-3(2H)-one]	47.6	140	140	37.5
O=C1CCC(c2ccc(-c3cccc(F)c3F)c(F)c2)=NN1 [Example 53, 6-(2,2′,3′-trifluoro[1,1′-biphenyl]-4-yl)-4,5-dihydropyridazin-3(2H)-one]	6.78	34	68	3.82
